Assay results as given in US10464890B2, “PGAM1 inhibitors and methods related thereto” (Emory University, priority 2011, dated 2019).
Entries after “also recorded” stand apart in the source; their conditions may differ.

Columns and labels:
[1] = test system: H1299 cells; experiment: Cellular 2-PG and 3-PG measurement; assay type: cell-based, human
Description: Cellular metabolites were extracted and spectrophotometrically measured as described previously with some modifications. To determine cellular concentration of 2-PG and 3-PG, 100 μL of packed cell pellets were homogenized in 1.5 ml of hypotonic lysis buffer (20 mM HEPES (pH 7.0), 5 mM KCl, 1 mM MgCl2, 5 mM DTT, and protease inhibitor cocktail). The homogenates were centrifuged in a cold room at 4° C. for 10 minutes at maximum speed, and the supernatants were applied to Amicon Ultra tubes with 10KDa cut off filter (Millipore). The flow through containing the metabolites was used for the measurement. NADH, ADP, and MgCl2 were added to the flow through to final concentrations of 0.14 mM, 1 mM, and 50 mM, respectively. Recombinant LDH and PKM1 proteins were added to final concentrations of 5 μg/ml and 10 μg/ml, respectively. Recombinant enolase protein was added to a final concentration of 50 μg/ml to measure cellular 2-PG. Once the reaction was initiated by enolase, a decrease in absorbance at 340 nm from NADH oxidation was measured by a DU800 spectrophotometer (Beckman). After termination of the enolase reaction, recombinant PGAM1 protein was added to a final concentration of 25 μg/ml and the decrease in absorbance at 340 nm was immediately monitored to measure cellular 3-PG. 100 μL of 2-PG and 3-PG (Sigma) diluted with 1.5 ml of hypotonic lysis buffer were used as the standards.
Alternatively, perchloric acid was used to quench metabolism and the acid extracts from H1299 cell lysates were then neutralized with KOH (DeBerardinis et al., 2007), followed by enzymatic reactions using the final supernatant to determine the 3-PG and 2-PG levels. An isotope-ratio based detection method was used to determine intracellular 3-PG and 2-PG levels in cells. In brief, pure standards were derivatized with a trimethylsilyl donor (Tri-Sil, Pierce) and used to determine the retention times of 2-PG and 3-PG on GC/MS. These standards were also used to identify parent ions containing all three 2-PG and 3-PG carbons on the derivatized molecule (m/z 459 for both 2-PG and 3-PG), and to generate algorithms for natural isotope abundance correction. Next, two dishes of H1299 cells were cultured in RPMI supplemented with [U-^13C]glucose so that approximately 25% of the total glucose pool was labeled. After 6 hours of culture, the cells were quickly rinsed in ice-cold normal saline, lysed in 1 mL of cold 50% methanol, and frozen in liquid nitrogen. […] The second sample was spiked with 25 nmoles of unlabeled 2-PG and 3-PG, derivatized, and analyzed by GC/MS. […] Assuming a 100 μL volume for the cell pellet, these figures correlate to intracellular concentrations of 66 μM for 2-PG and 81 μM for 3-PG, very close to the values measured by the enzymatic assay.

[2] = target: T1, PGAM1 in leukemia KG1a cells (Homo sapiens, UniProt P18669); experiment: PGAM1 inhibition in leukemia KG1a cells; assay type: cell-based; details: leukemia KG1a cells (2h); compared to alizarin, alizarin Red S, PGMI-001A
T1 construct: endogenous in cells; host or cells: KG1a leukemia cells; H1299 lung cancer cells
T1 sequence (P18669 whole entry): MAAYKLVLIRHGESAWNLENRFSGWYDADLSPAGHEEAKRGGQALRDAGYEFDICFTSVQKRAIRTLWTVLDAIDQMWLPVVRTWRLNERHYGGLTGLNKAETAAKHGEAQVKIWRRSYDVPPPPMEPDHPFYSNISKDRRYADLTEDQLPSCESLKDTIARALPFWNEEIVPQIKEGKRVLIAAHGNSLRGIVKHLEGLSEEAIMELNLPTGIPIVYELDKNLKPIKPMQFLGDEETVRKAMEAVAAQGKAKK

[3] = test system: diverse human cancer and leukemia cells; experiment: Cell proliferation of diverse cancer and leukemia cells; assay type: cell-based; details: diverse human cancer and leukemia cells incl. H1299, KG1a, 212LN; 72h
Description: For leukemia cell proliferation assay, 10×10^4 cells were seeded in non-tissue culture coated 6-well plate and incubated at 37° C. for indicated times. Cell numbers were counted by trypan blue exclusion under a microscope (×40) at indicated times and the percentage of cell proliferation was determined by comparing PGAM1 knockdown cells to pLKO.1 vector expressing cells. […] Cell viability was determined by counting drug-treated cells compared to DMSO-treated control cells with trypan blue exclusion under a microscope (×40) and by using CellTiter96Aqueous One solution proliferation kit (Promega). For adherent cell proliferation assay such as H1299 and MDA-MB231 cells, 5×10^4 cells were seeded in 6-well plate 24 h before the assay starts and were cultured at 37° C. 24 h after seeding, cells were treated with 5 μM Methyl-2PG and incubated at 37° C. for indicated times. Cell proliferation was determined by the increase in cell number indicated times after the treatment starts compared to that at the treatment starts for each cell line (T=0). Cell numbers were counted by trypan blue exclusion under a microscope (×40). […] Cell viability was determined by counting drug-treated cells compared to DMSO-treated control cells with trypan blue exclusion under a microscope (×40). […] Cell viability was determined by using CellTiter96Aqueous One solution proliferation kit (Promega).

[4] = target: PGAM1 (Homo sapiens, UniProt P18669); experiment: Thermal melt shift assay, PGAM1; assay type: binding; details: increasing concentrations, […] to 80 μM
Sequence of PGAM1 (P18669 whole entry): as above
Description: In brief, thermal shift assay of compound-protein interaction was performed in 384-well PCR plates with various compound concentrations and 200 μg/ml protein in a buffer solution (20 mM Tris-HCl, 100 mM NaCl, pH 7.4). SYPRO orange was used as a dye to monitor the fluorescence change at 610 nm. Small molecules were dissolved in DMSO and added to protein solution. Final DMSO concentration of solution is 1%. Dissociation constants (Kds) for protein-ligand interaction were calculated using the method as described.
The fluorescence intensity data were fitted to Eq. (1) to obtain ΔHu, ΔCpu, and Tm by nonlinear regression using the program Prism:
The thermal unfolding parameters for 6PGD and PGAM1 alone were determined from 4 control wells, each containing 0.2 mg/mL protein.

[5] = Toxicity studies in nude mice; assay type: in vivo
Description: Peripheral blood samples were collected and applied for analysis of hematological properties. The vital organs were collected for histo-pathological analysis. […] Images were analyzed and captured using ImageScope software (Aperio Technologies Inc.) without any additional or subsequent image processing (high power images are 20×; low power images are either 4.0×, 4.2×, or 4.4×). Scale bars are indicated.
An in vivo drug treatment experiment was performed. […] Xenograft experiments were performed by injecting H1299 cells to nude mice.

[6] = H1299 cells treated with PGMI-004A

Structure (SMILES) | 2-PG cellular levels ([1]; diverse PGAM1 knockdown cancer cells treated with methyl-2-PG) | 3-PG concentrations ([1]; diverse PGAM1 knockdown cells treated with methyl-2-PG) | potency of PGAM1 inhibition in cells [2] | cell proliferation [3] | PGAM1 melting temperature (Tm) [4] | 2-PG levels [1, 6] | 3-PG levels [1, 6] | body weight, complete blood counts (CBC) or hematopoietic properties ([5]; 100 mg/kg/day for 7 days) | histopathological analyses (kidney, lung, liver, spleen) ([5]; 100 mg/kg/day intraperitoneally for 7 days, vs vehicle) | tolerability ([5]; 100 mg/kg/day intraperitoneally, chronic injection for 4 weeks)
COC(=O)[C@@H](CO)OP(=O)(O)O [methyl-2-PG, methyl ester of D(+)-2-phosphoglyceric acid, reference compound] | increased 2-PG cellular levels | decreased 3-PG concentrations |  |  |  |  |  |  |  | 
O=C1c2ccccc2C(=O)c2c1cc(S(=O)(=O)Nc1ccc(C(F)(F)F)cc1)c(O)c2O [PGMI-004A, N-(4-trifluoromethyl)-penyl-3,4-dihydroxy-9,10-dioxo-2-anthracenesulfonamide] |  |  | more potent activity; also recorded: enhanced potency to inhibit PGAM1 | decreased cell proliferation | raises PGAM1 melting temperature (Tm) in a dose-dependent manner | decreased | increased | did not result in significant alteration | did not reveal significant differences; also recorded: no notable differences | well-tolerated
